Experimental data published in patent US11999732B2, “P2X3 receptor antagonists” (RECORDATI INDUSTRIA CHIMICA E FARMACEUTICA SPA, priority 2018, dated 2024).

Target: T1, human P2X3 receptor (Homo sapiens, UniProt P56373)
T1 construct: expressed in transfected cells; host or cells: CHO-K1
T1 sequence (P56373 1-397): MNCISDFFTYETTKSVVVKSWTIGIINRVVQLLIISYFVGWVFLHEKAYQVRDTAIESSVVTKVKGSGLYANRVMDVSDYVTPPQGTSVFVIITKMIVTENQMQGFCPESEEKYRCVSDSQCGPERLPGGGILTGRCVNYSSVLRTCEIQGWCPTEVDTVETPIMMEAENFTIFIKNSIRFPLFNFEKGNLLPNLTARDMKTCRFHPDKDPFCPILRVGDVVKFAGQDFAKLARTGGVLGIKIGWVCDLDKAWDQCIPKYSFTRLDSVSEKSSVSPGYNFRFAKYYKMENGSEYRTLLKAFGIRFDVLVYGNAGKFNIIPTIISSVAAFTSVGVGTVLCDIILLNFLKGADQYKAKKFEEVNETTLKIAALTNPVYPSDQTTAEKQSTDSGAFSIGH
Assay: Calcium luminescence (photoprotein) assay in CHO-K1 cells co-expressing human P2X3 receptor, α,β-Met-ATP stimulation, FLEXSTATION readout
Type: cell-based
Settings: Table 6; human P2X3 receptor antagonist activity, CHO-K1 cells, α,β-Met-ATP; read-out: h-P2X3 IC50
Method: The assay for the human purinergic P2X3 receptor has been adapted to the internal screening instrumentation using the FLEXSTATION as reader and a photoprotein as luminescent readout. The assay consists of CHO-K1 cells recombinantly co-expressing the human P2rx3 receptor and a Ca^2+ sensitive photoprotein. Cells are maintained in DMEM F-12 (1:1) mixture (LONZA cat. no BE04-687F/U1) supplemented with 9 mL of 100 mM Sodium Pyruvate (LONZA cat. no BE13-115E), 29 mL of 7.5% Sodium Bicarbonate (LONZA cat. no: BE17-613E), 5.5 mL of 1 M Hepes (LONZA cat. no BE17-737E), 5 mL of 100× Penicillin/Streptomycin (LONZA cat. no DE17-602E) and 50 mL of Fetal Bovine Serum (Sigma cat. no F7524), 1 mg/mL G418 (Sigma cat. no G8168) and 5 µg/ml puromycin (Sigma cat. no P9620). Standard propagation conditions consist of seeding in a P75 flask twice a week, recovering about 20×10^6 cells, corresponding to about 80% confluency. Cells were seeded into black-walled clear bottom 96 well plates at a density of 40000 cells/well in a Tyrode's buffer (Standard Tyrode's buffer: in house solution, 130 mM NaCl, 5 mM KCl, 2 mM CaCl2, 5 mM NaHCO3, 1 mM MgCl2, 20 mM HEPES, pH 7.4). After 24 h the culture medium was replaced with 200 μL/well of coelenterazine in Tyrode's buffer (Coelenterazine: from BIOSYNTH (cat. no C-7001). 10 mM stock solution was prepared in DMSO and glutathione and stored at −20° C.). The plates were incubated for 4 hours at 37° C., and injected with 10 μL/well of test compounds at 25× concentration in Tyrode's buffer. After 4 minutes a second injection of 50 μL/well of 5× α,β-Met-ATP in Tyrode's buffer (α,β-Met-ATP: from Tocris (cat. no 3209), was dissolved at 100 mM in water and stored in aliquots at −20° C.) was performed and the signal of the emitted luminescence was recorded by FLEXSTATION III (Molecular Devices).
The inhibition curves of the tested compounds at cloned P2X3 receptor were determined by nonlinear regression analysis using software Prism 4.0 (Graphpad, San Diego, Calif.). The IC50 values and pseudo-Hill slope coefficients were estimated by the program.

SMILES	IC50 [nM]
COc1cc(CN2C(=O)N3C(=NCC3CC(C)C)c3ncc(N4CCOCC4)cc32)cc(OC)c1 (stereo not drawn) [Example 35, 6-(3,5-dimethoxybenzyl)-3-(2-methylpropyl)-8-(morpholin-4-yl)-2,6-dihydroimidazo[1,2-c]pyrido[2,3-e]pyrimidin-5(3H)-one]	793
COc1ccc(CN2C(=O)N3C(=NCC3CC(C)C)c3ncc(N4CCOCC4)cc32)cc1 (stereo not drawn) [Example 38, 6-(4-methoxybenzyl)-3-(2-methylpropyl)-8-(morpholin-4-yl)-2,6-dihydroimidazo[1,2-c]pyrido[2,3-e]pyrimidin-5(3H)-one]	2040
CCC1CN2C(=O)N(Cc3ccc(OC)cc3)c3cc(N4CC(COC)C4)cnc3C2=N1 (stereo not drawn) [Example 39, 2-ethyl-6-(4-methoxybenzyl)-8-[3-(methoxymethyl)azetidin-1-yl]-2,6-dihydroimidazo[1,2-c]pyrido[2,3-e]pyrimidin-5(3H)-one]	5140
O=C1N2CC3(CCOCC3)N=C2c2ncc(N3CCOCC3)cc2N1Cc1ccc(Cl)cc1 [Example 40, 6-(4-chlorobenzyl)-8-(morpholin-4-yl)-2′,3′,5′,6′-tetrahydrospiro[imidazo[1,2-c]pyrido[2,3-e]pyrimidine-2,4′-pyran]-5(6H)-one]	1050
O=C1N(Cc2ccc(Cl)cc2)c2cc(N3CCOCC3)cnc2C2=NCC3(CCOCC3)N12 [Example 41, 6-(4-chlorobenzyl)-8-(morpholin-4-yl)-2,2′,3′,5′,6,6′-hexahydro-5h-spiro[imidazo[1,2-c]pyrido[2,3-e]pyrimidine-3,4′-pyran]-5-one]	3320
COc1cc(CN2C(=O)N3CC(C(C)C)N=C3c3ncc(NC4CCOCC4)cc32)cc(OC)c1 (stereo not drawn) [Example 49, 6-(3,5-dimethoxybenzyl)-2-(propan-2-yl)-8-(tetrahydro-2H-pyran-4-ylamino)-2,6-dihydroimidazo[1,2-c]pyrido[2,3-e]pyrimidin-5(3H)-one]	872
CCC1CN2C(=O)N(Cc3ccc(OC)cc3)c3cc(N4CCOCC4)cnc3C2=N1 (stereo not drawn) [Example 52, 2-ethyl-6-(4-methoxybenzyl)-8-(morpholin-4-y1)-2,6-dihydroimidazo[1,2-c]pyrido[2,3-e]pyrimidin-5(3H)-one]	1250
CCC1CN=C2c3ncc(N4CCOCC4)cc3N(Cc3ccc(OC)cc3)C(=O)N21 (stereo not drawn) [Example 53, 3-ethyl-6-(4-methoxybenzyl)-8-(morpholin-4-y1)-2,6-dihydroimidazo[1,2-c]pyrido[2,3-e]pyrimidin-5(3H)-one]	2070
O=C(C1CN2C(=O)N(Cc3ccc(Cl)cc3)c3cc(N4CCOCC4)cnc3C2=N1)N1CCOCC1 (stereo not drawn) [Example 54, 6-(4-chlorobenzyl)-8-(morpholin-4-yl)-2-(morpholin-4-ylcarbonyl)-2,6-dihydroimidazo[1,2-c]pyrido[2,3-e]pyrimidin-5(3H)-one]	1700
O=C(C1CN=C2c3ncc(N4CCOCC4)cc3N(Cc3ccc(Cl)cc3)C(=O)N21)N1CCOCC1 (stereo not drawn) [Example 55, 6-(4-chlorobenzyl)-8-(morpholin-4-y1)-3-(morpholin-4-ylcarbonyl)-2,6-dihydroimidazo[1,2-c]pyrido[2,3-e]pyrimidin-5(3H)-one]	2440

Stronger by IC50, values ahead:

IC50 [nM]	SMILES
124	COc1ccc(CN2C(=O)N3CC(C(C)(C)C)N=C3c3ncc(N4CCOCC4)cc32)cc1 (stereo not drawn) [Example 32, 2-tert-butyl-6-(4-methoxybenzyl)-8-(morpholin-4-yl)-2,6-dihydroimidazo[1,2-c]pyrido[2,3-e]pyrimidin-5(3H)-one]
219	COc1ccc(CN2C(=O)N3CC(C4CCC4)N=C3c3ncc(N4CCOCC4)cc32)cc1 (stereo not drawn) [Example 33, 2-cyclobutyl-6-(4-methoxybenzyl)-8-(morpholin-4-yl)-2,6-dihydroimidazo[1,2-c]pyrido[2,3-e]pyrimidin-5(3H)-one]
408	COc1ccc(CN2C(=O)N3CC(CC(C)(C)C)N=C3c3ncc(N4CCOCC4)cc32)cc1 (stereo not drawn) [Example 34, 2-(2,2-dimethylpropyl)-6-(4-methoxybenzyl)-8-(morpholin-4-y1)-2,6-dihydroimidazo[1,2-c]pyrido[2,3-e]pyrimidin-5(3H)-one]
245	O=C1N2CC(c3ccccc3)N=C2c2ncc(N3CCOCC3)cc2N1Cc1ccc(Cl)cc1 (stereo not drawn) [Example 36, 6-(4-chlorobenzyl)-8-(morpholin-4-y1)-2-phenyl-2,6-dihydroimidazo[1,2-c]pyrido[2,3-e]pyrimidin-5(3H)-one]
678	COc1ccc(CN2C(=O)N3CC(CC(C)C)N=C3c3ncc(N4CCOCC4)cc32)cc1 (stereo not drawn) [Example 37, 6-(4-methoxybenzyl)-2-(2-methylpropyl)-8-(morpholin-4-yl)-2,6-dihydroimidazo[1,2-c]pyrido[2,3-e]pyrimidin-5(3H)-one]
189	COc1cc(CN2C(=O)N3CC(C(C)C)N=C3c3ncc(N4CCC(N)CC4)cc32)cc(OC)c1 (stereo not drawn) [Example 42, 8-(4-aminopiperidin-1-yl)-6-(3,5-dimethoxybenzyl)-2-(propan-2-yl)-2,6-dihydroimidazo[1,2-c]pyrido[2,3-e]pyrimidin-5(3H)-one]
112	COc1cc(CN2C(=O)N3CC(C4CCCCC4)N=C3c3ncc(N4CCOCC4)cc32)cc(OC)c1 (stereo not drawn) [Example 43, 2-cyclohexyl-6-(3,5-dimethoxybenzyl)-8-(morpholin-4-yl)-2,6-dihydroimidazo[1,2-c]pyrido[2,3-e]pyrimidin-5(3H)-one]
491	COc1cc(CN2C(=O)N3C(=NCC3C3CCCCC3)c3ncc(N4CCOCC4)cc32)cc(OC)c1 (stereo not drawn) [Example 44, 3-cyclohexyl-6-(3,5-dimethoxybenzyl)-8-(morpholin-4-yl)-2,6-dihydroimidazo[1,2-c]pyrido[2,3-e]pyrimidin-5(3H)-one]
200	O=C1N(Cc2ccc(Cl)cc2)c2cc(N3CCOCC3)cnc2C2=NCC(c3ccccc3)N12 (stereo not drawn) [Example 45, 6-(4-chlorobenzyl)-8-(morpholin-4-y1)-3-phenyl-2,6-dihydroimidazo[1,2-c]pyrido[2,3-e]pyrimidin-5(3H)-one]
127	COc1cc(CN2C(=O)N3CC(c4ccccc4)N=C3c3ncc(N4CCOCC4)cc32)cc(OC)c1 (stereo not drawn) [Example 46, 6-(3,5-dimethoxybenzyl)-8-(morpholin-4-yl)-2-phenyl-2,6-dihydroimidazo[1,2-c]pyrido[2,3-e]pyrimidin-5(3H)-one]
199	COc1cc(CN2C(=O)N3C(=NCC3c3ccccc3)c3ncc(N4CCOCC4)cc32)cc(OC)c1 (stereo not drawn) [Example 47, 6-(3,5-dimethoxybenzyl)-8-(morpholin-4-yl)-3-phenyl-2,6-dihydroimidazo[1,2-c]pyrido[2,3-e]pyrimidin-5(3H)-one]
280	CCC1CN2C(=O)N(Cc3ccc(Cl)cc3)c3cc(N4CCOCC4)cnc3C2=N1 (stereo not drawn) [Example 50, 6-(4-chlorobenzyl)-2-ethyl-8-(morpholin-4-y1)-2,6-dihydroimidazo[1,2-c]pyrido[2,3-e]pyrimidin-5(3H)-one]
731	CC(C)C1CN2C(=O)N(Cc3ccc(Cl)cc3)c3cc(N4CCC(O)CC4)cnc3C2=N1 (stereo not drawn) [Example 51, 6-(4-chlorobenzyl)-8-(4-hydroxypiperidin-1-yl)-2-(propan-2-yl)-2,6-dihydroimidazo[1,2-c]pyrido[2,3-e]pyrimidin-5(3H)-one]
345	COc1ccc(CN2C(=O)N3CC(CC(F)(F)F)N=C3c3ncc(N4CCOCC4)cc32)cc1 (stereo not drawn) [Example 56, 6-(4-methoxybenzyl)-8-(morpholin-4-y1)-2-(2,2,2-trifluoroethyl)-2,6-dihydroimidazo[1,2-c]pyrido[2,3-e]pyrimidin-5(3H)-one]
